From patent publication US10208067B2, “Compounds for treating spinal muscular atrophy” (Hoffmann-La Roche Inc., priority 2015, dated 2019)
Like-named read-outs stand apart in the source and are kept apart here.

Experiments:
[1] = system: SMN protein in SMA patient fibroblast cells (GM03813); assay: SMN protein assay (HTRF) in cultured cells; format: cell-based; conditions: Homo sapiens, SMA Type 1 patient fibroblasts, 48 hours; for EC (1.5-fold): concentration producing 1.5 times SMN protein vs vehicle, read-out: EC1.5x SMN protein; for maximal fold induction: relative to vehicle control, read-out: max. fold increase of SMN protein
Procedure: The SMN HTRF (homogeneous time resolved fluorescence) assay is used to quantify the level of SMN protein in SMA patient fibroblast cells treated with test compounds. Materials used and respective sources are listed below in Table 4.
Cells are thawed and cultured in DMEM-10% FBS for 72 hours. Cells are trypsinized, counted and re-suspended to a concentration of 25,000 cells/mL in DMEM-10% FBS. The cell suspensions are plated at 5,000 cells per well in a 96 well microtiter plate and incubated for […]. […] 1 μL of test compound solution is transferred to cell-containing wells and cells are incubated for 48 hours in a cell culture incubator (37° C., 5% CO2, 100% relative humidity). Triplicate samples are set up for each test compound concentration. After 48 hours, the supernatant is removed from the wells and 25 μL of the RIPA lysis buffer, containing protease inhibitors, is added to the wells and incubated with shaking at room temperature for 1 hour. 25 μL of the diluent is added and then 35 μL of the resulting lysate is transferred to a 384-well plate, where each well contains 5 μL of the antibody solution (1:100 dilution of anti-SMN d2 and anti-SMN cryptate in SMN reconstitution buffer). The plate is centrifuged for 1 minute to bring the solution to the bottom of the wells, then incubated overnight at room temperature. Fluorescence for each well of the plate at 665 nm and 620 nm is measured on an EnVision multilabel plate reader (Perkin-Elmer).
The normalized fluorescence signal is calculated for each sample, Blank and vehicle control well by dividing the signal at 665 nm by the signal at 620 nm. Normalizing the signal accounts for possible fluorescence quenching due to the matrix effect of the lysate. The ΔF value (a measurement of SMN protein abundance as a percent value) for each sample well is calculated by subtracting the normalized average fluorescence for the Blank control wells from the normalized fluorescence for each sample well, then dividing this difference by the normalized average fluorescence for the Blank control wells and multiplying the resulting value by 100. The ΔF value for each sample well represents the SMN protein abundance from test compound-treated samples. The ΔF value for each sample well is divided by the ΔF value for the vehicle control wells to calculate the fold increase in SMN protein abundance relative to the vehicle control. Table 5 provides EC1-5× concentrations for SMN protein expression that was obtained from the 7-point concentration data generated according to the above procedure for particular compounds of the present invention.
Table 6 provides the maximum fold increase of SMN protein that was obtained from the 7-point concentration data generated according to the above procedure for particular compounds of the present invention

[2] = system: full length SMN2 minigene mRNA (HEK293H cells stably transfected with SMN2-A minigene); assay: RT-qPCR assay for SMN2 minigene pre-mRNA splicing in cultured cells; format: cell-based; conditions: Homo sapiens, HEK293-H, 24 hours
[3] = Table 3 (title: production of full length SMN2 minigene mRNA), read-out: EC1.5x SMN protein
[4] = concentration increasing full length SMN2 minigene mRNA 1.5-fold vs vehicle, read-out: EC1.5x minigene

Row | Structure (SMILES) | EC (1.5-fold) [1] [µM] | maximal fold induction [1] | EC (1.5-fold) [2, 3] [µM] | EC (1.5-fold) [2, 4] [µM]
1 | CCN1CCN(c2cc(C)c3nc(-c4ccc5nc(C)nn5n4)cc(=O)n3c2)CC1 [Example 32, 7-(4-ethylpiperazin-1-yl)-9-methyl-2-(2-methyl-[1,2,4]triazolo[1,5-b]pyridazin-6-yl)pyrido[1,2-a]pyrimidin-4-one] | 0.0725 | 1.97 | 0.0038 | –
2 | Cc1nc2ccc(-c3cc(=O)n4cc(N5CCN(C)CC5)ccc4n3)nn2n1 [Example 39, 7-(4-methylpiperazin-1-yl)-2-(2-methyl-[1,2,4]triazolo[1,5-b]pyridazin-6-yl)pyrido[1,2-a]pyrimidin-4-one] | 0.09 | 1.74 | 0.0272 | –
3 | Cc1nc2ncc(-c3cc(=O)n4cc(N5CC6(CCNCC6)C5)ccc4n3)cn2n1 [Example 5, 7-(2,7-diazaspiro[3.5]nonan-2-yl)-2-(2-methyl-[1,2,4]triazolo[1,5-a]pyrimidin-6-yl)pyrido[1,2-a]pyrimidin-4-one] | 0.106 | 1.99 | – | < 0.0317
4 | Cc1nc2ncc(-c3cc(=O)n4cc(N5CCCN(C)CC5)ccc4n3)cn2n1 [Example 4, 7-(4-methyl-1,4-diazepan-1-yl)-2-(2-methyl-[1,2,4]triazolo[1,5-a]pyrimidin-6-yl)pyrido[1,2-a]pyrimidin-4-one] | 0.324 | 1.78 | – | 0.1
5 | Cc1nc2ncc(-c3cc(=O)n4cc(N5CCN[C@H](C)C5)ccc4n3)cn2n1 [Example 24, 7-[(3R)-3-methylpiperazin-1-yl]-2-(2-methyl-[1,2,4]triazolo[1,5-a]pyrimidin-6-yl)pyrido[1,2-a]pyrimidin-4-one] | 0.121 | 1.87 | 0.0348 | –
6 | Cc1nc2ncc(-c3cc(=O)n4cc(N5CCN[C@@H](C)C5)ccc4n3)cn2n1 [Example 16, 7-[(3S)-3-methylpiperazin-1-yl]-2-(2-methyl-[1,2,4]triazolo[1,5-a]pyrimidin-6-yl)pyrido[1,2-a]pyrimidin-4-one] | 0.281 | 1.71 | – | 0.115
7 | Cc1nc2ncc(-c3cc(=O)n4cc(N5CCNCC5)ccc4n3)cn2n1 [Example 1, 2-(2-methyl-[1,2,4]triazolo[1,5-a]pyrimidin-6-yl)-7-piperazin-1-yl-pyrido[1,2-a]pyrimidin-4-one] | 0.221 | 1.9 | – | 0.0584
8 | Cc1nc2ccc(-c3cc(=O)n4cc(N5CC[C@@H](N(C)C)C5)ccc4n3)nn2n1 [Example 41, 7-[(3R)-3-(dimethylamino)pyrrolidin-1-yl]-2-(2-methyl-[1,2,4]triazolo[1,5-b]pyridazin-6-yl)pyrido[1,2-a]pyrimidin-4-one] | 0.207 | 1.75 | 0.163 | –
9 | Cc1nc2ccc(-c3cc(=O)n4cc(N5CC6(CCNC6)C5)cc(C)c4n3)nn2n1 [Example 48, 7-(2,7-diazaspiro[3.4]octan-2-yl)-9-methyl-2-(2-methyl-[1,2,4]triazolo[1,5-b]pyridazin-6-yl)pyrido[1,2-a]pyrimidin-4-one] | 1.32 | 1.68 | 0.168 | –
10 | Cc1nc2ncc(-c3cc(=O)n4cc(N5CC6(CN(C)C6)C5)ccc4n3)cn2n1 [Example 21, 7-(6-methyl-2,6-diazaspiro[3.3]heptan-2-yl)-2-(2-methyl-[1,2,4]triazolo[1,5-a]pyrimidin-6-yl)pyrido[1,2-a]pyrimidin-4-one] | 0.56 | 1.6 | 0.145 | –
11 | Cc1nc2ccc(-c3cc(=O)n4cc(N5CCN[C@H](C)C5)ccc4n3)nn2n1 [Example 17, 7-[(3R)-3-methylpiperazin-1-yl]-2-(2-methyl-[1,2,4]triazolo[1,5-b]pyridazin-6-yl)pyrido[1,2-a]pyrimidin-4-one] | 0.0932 | 1.82 | – | 0.0191
12 | Cc1nc2ncc(-c3cc(=O)n4cc(N5CC6(CNC6)C5)ccc4n3)cn2n1 [Example 7, 7-(2,6-diazaspiro[3.3]heptan-2-yl)-2-(2-methyl-[1,2,4]triazolo[1,5-a]pyrimidin-6-yl)pyrido[1,2-a]pyrimidin-4-one] | 0.247 | 1.78 | – | 0.107
13 | Cc1nc2ccc(-c3cc(=O)n4cc(N5C[C@@H](C)N[C@@H](C)C5)cc(C)c4n3)nn2n1 [Example 26, 7-[(3R,5S)-3,5-dimethylpiperazin-1-yl]-9-methyl-2-(2-methyl-[1,2,4]triazolo[1,5-b]pyridazin-6-yl)pyrido[1,2-a]pyrimidin-4-one] | 0.225 | 1.88 | 0.0483 | –
14 | Cc1nc2ccc(-c3cc(=O)n4cc(N5CCNCC5)cc(C)c4n3)nn2n1 [Example 15, 9-methyl-7-piperazin-1-yl-2-(2-methyl-[1,2,4]triazolo[1,5-b]pyridazin-6-yl)pyrido[1,2-a]pyrimidin-4-one] | < 0.03 | 1.82 | – | < 0.03
15 | Cc1nc2ccc(-c3cc(=O)n4cc(N5CCCN(C)CC5)ccc4n3)nn2n1 [Example 20, 7-(4-methyl-1,4-diazepan-1-yl)-2-(2-methyl-[1,2,4]triazolo[1,5-b]pyridazin-6-yl)pyrido[1,2-a]pyrimidin-4-one] | 0.12 | 1.77 | 0.0418 | –
16 | Cc1nc2ccc(-c3cc(=O)n4cc(N5CC6(CN(C)C6)C5)ccc4n3)nn2n1 [Example 46, 7-(6-methyl-2,6-diazaspiro[3.3]heptan-2-yl)-2-(2-methyl-[1,2,4]triazolo[1,5-b]pyridazin-6-yl)pyrido[1,2-a]pyrimidin-4-one] | 0.0314 | 1.75 | 0.003 | –
17 | Cc1nc2ccc(-c3cc(=O)n4cc(N5CCN[C@H](C)C5)cc(C)c4n3)nn2n1 [Example 40, 9-methyl-7-[(3R)-3-methylpiperazin-1-yl]-2-(2-methyl-[1,2,4]triazolo[1,5-b]pyridazin-6-yl)pyrido[1,2-a]pyrimidin-4-one] | 0.0148 | 2.08 | 0.0088 | –
18 | CCN1CCN(c2ccc3nc(-c4ccc5nc(C)nn5n4)cc(=O)n3c2)CC1 [Example 43, 7-(4-ethylpiperazin-1-yl)-2-(2-methyl-[1,2,4]triazolo[1,5-b]pyridazin-6-yl)pyrido[1,2-a]pyrimidin-4-one] | 0.0562 | 2.02 | 0.0328 | –
19 | Cc1nc2ncc(-c3cc(=O)n4cc(N5CCN(C6CNC6)CC5)ccc4n3)cn2n1 [Example 10, 7-[4-(azetidin-3-yl)piperazin-1-yl]-2-(2-methyl-[1,2,4]triazolo[1,5-a]pyrimidin-6-yl)pyrido[1,2-a]pyrimidin-4-one] | 30 | 1.5 | – | 5.93
20 | Cc1nc2ccc(-c3cc(=O)n4cc(N5CC6(CCNCC6)C5)ccc4n3)nn2n1 [Example 38, 7-(2,7-diazaspiro[3.5]nonan-2-yl)-2-(2-methyl-[1,2,4]triazolo[1,5-b]pyridazin-6-yl)pyrido[1,2-a]pyrimidin-4-one] | 0.0199 | 1.69 | 0.002 | –
21 | Cc1nc2ccc(-c3cc(=O)n4cc(N5CCN[C@@H](C)C5)cc(C)c4n3)nn2n1 [Example 45, 9-methyl-7-[(3S)-3-methylpiperazin-1-yl]-2-(2-methyl-[1,2,4]triazolo[1,5-b]pyridazin-6-yl)pyrido[1,2-a]pyrimidin-4-one] | 0.009 | 2.04 | 0.0008 | –
22 | Cc1nc2ccc(-c3cc(=O)n4cc(N5CC6CN(C)CC6C5)ccc4n3)nn2n1 (stereo not drawn) [Example 33, 7-(2-methyl-1,3,3a,4,6,6a-hexahydropyrrolo[3,4-c]pyrrol-5-yl)-2-(2-methyl-[1,2,4]triazolo[1,5-b]pyridazin-6-yl)pyrido[1,2-a]pyrimidin-4-one] | 0.0151 | 1.67 | 0.0038 | –
